Measurements reported in ChEMBL document CHEMBL1201862, “PubChem BioAssay data set” (2004).
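Following 48 hours of exposure in 96-well plates, responses at five concentrations were used to interpolate endpoints linearly. GI50 marks 50% less growth.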 Activity calls are given as the source filed them. No stated cut-off is given here; in the data, active = GI50 up to about 1.1 µM and inactive = higher.

Legend:
Test in all cases: inhibition of tumour cell growth, NCI panel, 48 h
MDA-MB-231 = system: MDA-MB-231
CCRF-CEM = system: CCRF-CEM
786-0 = system: 786-0
SN12C = system: SN12C
OVCAR-5 = system: OVCAR-5
KM12 = system: KM12
MDA-N = system: MDA-N
SK-MEL-5 = system: SK-MEL-5
IGROV-1 = system: IGROV-1
NCI-H522 = system: NCI-H522
NCI-H226 = system: NCI-H226
EKVX = system: EKVX
MOLT-4 = system: MOLT-4
NCI-H23 = system: NCI-H23
SF-268 = system: SF-268
HL-60 = system: HL-60
K562 = system: K562
M14 = system: M14
MDA-MB-435 = system: MDA-MB-435
MCF7 = system: MCF7
UACC-257 = system: UACC-257
HT-29 = system: HT-29
DU-145 = system: DU-145
UACC-62 = system: UACC-62
CAKI-1 = system: CAKI-1
A549 = system: A549
SF-539 = system: SF-539
PC-3 = system: PC-3
Hs-578T = system: Hs-578T
HOP-62 = system: HOP-62
RXF 393 = system: RXF 393
LOX IMVI = system: LOX IMVI
NCI/ADR-RES = system: NCI/ADR-RES
RPMI-8226 = system: RPMI-8226
HOP-92 = system: HOP-92
SR = system: SR
SK-MEL-28 = system: SK-MEL-28
T47D = system: T47D
HCT-15 = system: HCT-15
SK-OV-3 = system: SK-OV-3
OVCAR-3 = system: OVCAR-3
NCI-H460 = system: NCI-H460
BT-549 = system: BT-549
SF-295 = system: SF-295
HCT-116 = system: HCT-116
TK-10 = system: TK-10
UO-31 = system: UO-31
OVCAR-8 = system: OVCAR-8
SNB-19 = system: SNB-19
A498 = system: A498
Malme-3M = system: Malme-3M
SK-MEL-2 = system: SK-MEL-2
U-251 = system: U-251
SW-620 = system: SW-620
COLO 205 = system: COLO 205
ACHN = system: ACHN
OVCAR-4 = system: OVCAR-4

**Q.** `Fc1cccc(Cl)c1/C=N\N=C1c2ccccc2-c2ccccc21` was tested. Which GI50 (MDA-MB-231) did it give?
**A.** 90.4 µM (inactive)

**Q.** And the GI50 (CCRF-CEM)?
**A.** > 100 µM (inactive)

**Q.** What about the GI50 (786-0) of the same compound?
**A.** > 100 µM (inactive)

**Q.** And the GI50 (SN12C)?
**A.** > 100 µM (inactive)

**Q.** What about the GI50 (OVCAR-5) of the same compound?
**A.** > 100 µM (inactive)

**Q.** And the GI50 (KM12)?
**A.** 40.7 µM (inactive)

**Q.** What about the GI50 (MDA-N) of the same compound?
**A.** 48.3 µM (inactive)

**Q.** And the GI50 (SK-MEL-5)?
**A.** > 100 µM (inactive)

**Q.** What about the GI50 (IGROV-1) of the same compound?
**A.** 64.3 µM (inactive)

**Q.** What about the GI50 (NCI-H522) of the same compound?
**A.** > 100 µM (inactive)

**Q.** What about the GI50 (NCI-H226) of the same compound?
**A.** > 100 µM (inactive)

**Q.** And the GI50 (EKVX)?
**A.** > 100 µM (inactive)

**Q.** What about the GI50 (MOLT-4) of the same compound?
**A.** 66.4 µM (inactive)

**Q.** What about the GI50 (NCI-H23) of the same compound?
**A.** > 100 µM (inactive)

**Q.** And the GI50 (SF-268)?
**A.** > 100 µM (inactive)

**Q.** And the GI50 (HL-60)?
**A.** > 100 µM (inactive)

**Q.** What about the GI50 (K562) of the same compound?
**A.** > 100 µM (inactive)

**Q.** What about the GI50 (M14) of the same compound?
**A.** > 100 µM (inactive)

**Q.** And the GI50 (MDA-MB-435)?
**A.** 36 µM (inactive)

**Q.** And the GI50 (MCF7)?
**A.** 11.8 µM (inactive)

**Q.** And the GI50 (UACC-257)?
**A.** > 100 µM (inactive)

**Q.** And the GI50 (HT-29)?
**A.** 58.9 µM (inactive)

**Q.** And the GI50 (DU-145)?
**A.** > 100 µM (inactive)

**Q.** What about the GI50 (UACC-62) of the same compound?
**A.** > 100 µM (inactive)

**Q.** What about the GI50 (CAKI-1) of the same compound?
**A.** > 100 µM (inactive)

**Q.** And the GI50 (A549)?
**A.** 70 µM (inactive)

**Q.** And the GI50 (SF-539)?
**A.** 49.4 µM (inactive)

**Q.** What about the GI50 (PC-3) of the same compound?
**A.** 97.9 µM (inactive)

**Q.** And the GI50 (Hs-578T)?
**A.** 34.3 µM (inactive)

**Q.** And the GI50 (HOP-62)?
**A.** 65.6 µM (inactive)

**Q.** What about the GI50 (RXF 393) of the same compound?
**A.** > 100 µM (inactive)

**Q.** And the GI50 (LOX IMVI)?
**A.** > 100 µM (inactive)

**Q.** And the GI50 (NCI/ADR-RES)?
**A.** > 100 µM (inactive)

**Q.** And the GI50 (RPMI-8226)?
**A.** 33.9 µM (inactive)

**Q.** What about the GI50 (HOP-92) of the same compound?
**A.** > 100 µM (inactive)

**Q.** And the GI50 (SR)?
**A.** 51.2 µM (inactive)

**Q.** And the GI50 (SK-MEL-28)?
**A.** 76 µM (inactive)

**Q.** And the GI50 (T47D)?
**A.** 30 µM (inactive)

**Q.** And the GI50 (HCT-15)?
**A.** 75.2 µM

**Q.** What about the GI50 (SK-OV-3) of the same compound?
**A.** > 100 µM (inactive)

**Q.** What about the GI50 (OVCAR-3) of the same compound?
**A.** 69.2 µM (inactive)

**Q.** And the GI50 (NCI-H460)?
**A.** 79.8 µM (inactive)

**Q.** And the GI50 (BT-549)?
**A.** > 100 µM (inactive)

**Q.** And the GI50 (SF-295)?
**A.** 61.7 µM (inactive)

**Q.** What about the GI50 (HCT-116) of the same compound?
**A.** > 100 µM (inactive)

**Q.** And the GI50 (TK-10)?
**A.** > 100 µM (inactive)

**Q.** What about the GI50 (UO-31) of the same compound?
**A.** > 100 µM (inactive)

**Q.** And the GI50 (OVCAR-8)?
**A.** 79.8 µM (inactive)

**Q.** What about the GI50 (SNB-19) of the same compound?
**A.** 98.9 µM (inactive)

**Q.** And the GI50 (A498)?
**A.** > 100 µM (inactive)

**Q.** And the GI50 (Malme-3M)?
**A.** 76.7 µM (inactive)

**Q.** What about the GI50 (SK-MEL-2) of the same compound?
**A.** > 100 µM (inactive)

**Q.** And the GI50 (U-251)?
**A.** 78.9 µM (inactive)

**Q.** And the GI50 (SW-620)?
**A.** 73.8 µM (inactive)

**Q.** And the GI50 (COLO 205)?
**A.** > 100 µM (inactive)

**Q.** And the GI50 (ACHN)?
**A.** 95.3 µM (inactive)

**Q.** And the GI50 (OVCAR-4)?
**A.** 49.4 µM (inactive)
